Assay results published in patent US8343966B2, “Organic compounds” (Novartis AG, priority 2008, dated 2013).

Target: T1, human ALK5 (ALK5 T204D kinase domain) (Homo sapiens, UniProt P36897, T204D)
T1 construct: The kinase domain of human ALK5 (amino acids 200-503); made in house; host or cells: insect cells (baculovirus)
T1 sequence (P36897 200-503 T204D): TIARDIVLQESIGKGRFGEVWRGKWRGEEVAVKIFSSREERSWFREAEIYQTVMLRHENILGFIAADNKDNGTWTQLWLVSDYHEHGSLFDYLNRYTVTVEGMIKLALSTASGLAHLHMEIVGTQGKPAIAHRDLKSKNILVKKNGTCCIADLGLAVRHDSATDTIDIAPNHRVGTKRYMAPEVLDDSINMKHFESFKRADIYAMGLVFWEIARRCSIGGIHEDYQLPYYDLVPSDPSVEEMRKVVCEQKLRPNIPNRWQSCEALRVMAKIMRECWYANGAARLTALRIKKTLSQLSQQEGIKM
Assay: ALK5 kinase assay, [33P] phosphate incorporation into casein
Format: biochemical
Conditions: casein substrate, 1 μM unlabelled ATP
Method: The kinase activity of ALK5 is assessed by measuring radiolabelled phosphate [33P] incorporation in to the generic substrate, casein. The kinase domain of human ALK5 (amino acids 200-503) is fused to an N-terminal histidine tag. The kinase activity of ALK5 is rendered constitutive via point mutation at amino acid 204 (threonine to aspartate modification, ALK5 T204D) and the kinase construct is engineered to be expressed from a baculovirus expression construct in insect cells. The purified, recombinantly-expressed histidine-tagged ALK5 T204D protein is dissolved at 5.4 mg/ml in 50 mM Tris-HCl pH 8.0, 150 mM NaCl, 5 mM DTT. ALK5 T204D is dissolved to 2.5 μg/ml in assay buffer (Assay buffer: 20 mM Tris-HCl pH 7.4, 10 mM MgCl2, 2 mM MnCl2) on the day of use.
Test compounds and reference compounds are dissolved in assay buffer without DTT containing 5% (v/v) DMSO. Stock solutions of test and reference compounds are diluted in assay buffer with DTT (1.25 mM) containing 4.5% (v/v) DMSO. 10 μl of test or reference compound are added to the appropriate wells of 96 well U-bottomed plate. Total enzyme activity is determined by measuring ALK5 T204D activity in the absence of ALK5 kinase inhibitor reference compounds. Non-specific binding (NSB) is determined by measuring the activity of ALK5 T204D in the presence of ALK5 kinase inhibitor reference compounds. 10 μl of dephosphorylated casein stock solution (dephosphorylated casein is dissolved in ddH2O at 20 mg/ml) is added per well (200 μg/well final assay concentration). 20 μl of ALK5 T204D (2.5 μg/ml solution) is added per well (50 ng/well final assay concentration). The plates are left to incubate at room temperature for 10 minutes.
10 μl of ATP mix is added to the well to initiate the reaction (0.66 nM [^33P]ATP/1 μM unlabelled ATP/well final assay concentration). The ATP mix is prepared as follows, unlabelled ATP (3 mM) is dissolved in ddH2O and pH adjusted to 7.4. The stock concentration of [^33P]ATP is 10 μCi/μl. The appropriate volume of [^33P]ATP is added to unlabelled ATP solution such that the final assay concentration per well is 0.1 μCi. Following addition of the ATP mix, the plates are incubated at room temperature for 50 minutes. The kinase reaction is terminated by the addition of 50 μL Stop Buffer (20 mM Tris-HCl pH 7.4, 10 mM EDTA).
75 μl/well from the reaction plate is transferred to a Multiscreen-IP plate (MultiScreen-IP plates are prepared by added 50 μL of 70% (v/v) ethanol per well and incubated for 5 minutes at room temperature. The ethanol is removed by aspiration via a MultiScreen HTS Vacuum Manifold unit (Millipore, Cat no: MSVMHT500). The plates are washed twice by adding 200 μl/well ddH2O). The MultiScreen-IP plate is incubated at room temperature for 30 minutes to allowing binding of casein to the plate. The MultiScreen-IP plates are washed three times by adding 200 μl/well 100 mM phosphoric acid solution and the gasket is carefully removed from the back of the MultiScreen-IP plate and the plate dried in the oven for 30 minutes. The MultiScreen-IP plate is backsealed, 50 μL of Microscint™20 is added, then the plates are topsealed and radiolabelled casein detected and quantified on a TopCount™ plate-reader using the ^33P scintillation protocol.

SMILES	IC50 [nM]
c1cncc(-c2cc(NCCc3c[nH]c4ccccc34)nc(-c3ccco3)c2)c1 [Example 1.1, (6′-Furan-2-yl-[3,4′]bipyridinyl-2′-yl)-[2-(1H-indol-3-yl)-ethyl]-amine]	16
c1cncc(-c2cc(NCc3cccc4[nH]ccc34)nc(-c3ccco3)c2)c1 [Example 1.2, (6′-Furan-2-yl-[3,4′]bipyridinyl-2′-yl)-(1H-indol-4-ylmethyl)-amine]	19
Cc1ccc(-c2cc(-c3cccnc3)cc(NCCc3c[nH]c4ccccc34)n2)o1 [Example 1.3, [2-(1H-Indol-3-yl)-ethyl]-[6′-(5-methyl-furan-2-yl)-[3,4′]bipyridinyl-2′-yl]-amine]	23
c1ccc(-c2cc(-c3cccnc3)cc(NCCc3cccc4[nH]ccc34)n2)nc1 [Example 1.6, [2-(1H-Indol-4-yl)-ethyl]-[2,2′;4′,3″]terpyridin-6′-yl-amine]	29
c1ccc(-c2cc(-c3cccnc3)cc(NCCc3c[nH]c4ccccc34)n2)nc1 [Example 1.10, [2-(1H-Indol-3-yl)-ethyl]-[2,2′;4′,3″]terpyridin-6′-yl-amine]	57
c1ccc(-c2cc(-c3cccnc3)cc(NCc3cccc4[nH]ccc34)n2)nc1 [Example 1.15, (1H-Indol-4-ylmethyl)-[2,2′;4′,3″]terpyridin-6′-yl-amine]	190
Oc1cccc(CNc2cc(-c3cncc(Br)c3)cc(-c3ccccn3)n2)c1 [Example 1.23, 3-[(5″-Bromo-[2,2′;4′,3″]terpyridin-6′-ylamino)-methyl]-phenol]	214
CNc1cc(-c2cncc(-c3ccc(C(=O)N4CCN(C)CC4)cc3)c2)cc(-c2ccccn2)n1 [Example 2.1, [4-(6′-Methylamino-[2,2′;4′,3″]terpyridin-5″-yl)-phenyl]-(4-methyl-piperazin-1-yl)-methanone]	17
CNc1cc(-c2cncc(-c3ccc(N4CCN(C)CC4)cc3)c2)cc(-c2ccccn2)n1 [Example 2.2, Methyl-{5″-[4-(4-methyl-piperazin-1-yl)-phenyl]-[2,2′;4′,3″]terpyridin-6′-yl}-amine]	30
CNc1cc(-c2cncc(-c3cccc(N4CCCC4)c3)c2)cc(-c2ccccn2)n1 [Example 2.12, Methyl-[5″-(3-pyrrolidin-1-yl-phenyl)-[2,2′;4′,3″]terpyridin-6′-yl]-amine]	209
CNc1cc(-c2cncc(-c3ccnc(OC)c3)c2)cc(-c2ccccn2)n1 [Example 2.17, (2′″-Methoxy-[2,2′;4′,3″;5″,4′″]quaterpyridin-6′-yl)-methyl-amine]	236

The remaining lines, values ahead:

IC50 [nM]	SMILES
16	CNc1cc(-c2cncc(-c3cccc(CN4CCN(C)CC4)c3)c2)cc(-c2ccccn2)n1 [Example 2.23, Methyl-{5″-[3-(4-methyl-piperazin-1-ylmethyl)-phenyl]-[2,2′;4′,3″]terpyridin-6′-yl}-amine]
14	CNc1cc(-c2cncc(-c3ccc(CN4CCN(C(C)C)CC4)cc3)c2)cc(-c2ccccn2)n1 [Example 2.24, {5″-[4-(4-Isopropyl-piperazin-1-ylmethyl)-phenyl]-[2,2′;4′,3″]terpyridin-6′-yl}-methyl-amine]
12	CNc1cc(-c2cncc(-c3ccc(CN4CCN(C)CC4)cc3)c2)cc(-c2ccccn2)n1 [Example 2.26, Methyl-{5″-[4-(4-methyl-piperazin-1-ylmethyl)-phenyl]-[2,2′;4′,3″]terpyridin-6′-yl}-amine]
52	CNc1cc(-c2cncc(-c3ccc(C(=O)N4CCN(C)CC4)cc3)c2)cc(-c2cccc(C)n2)n1 [Example 2.28, [4-(6-Methyl-6′-methylamino-[2,2′;4′,3″]terpyridin-5″-yl)-phenyl]-(4-methyl-piperazin-1-yl)-methanone]
8	O=C(c1ccc(-c2cncc(-c3cc(NC4CC4)nc(-c4ccccn4)c3)c2)cc1)N1CCNCC1 [Example 2.30, [4-(6′-Cyclopropylamino-[2,2′;4′,3″]terpyridin-5″-yl)-phenyl]-piperazin-1-yl-methanone]
4	CC(C)N1CCN(Cc2ccc(-c3cncc(-c4cc(NC5CC5)nc(-c5ccccn5)c4)c3)cc2)CC1 [Example 2.31, Cyclopropyl-{5″-[4-(4-isopropyl-piperazin-1-ylmethyl)-phenyl]-[2,2′;4′,3″]terpyridin-6′-yl}-amine]
235	CN(C)[C@@H]1CCN(Cc2ccc(-c3cncc(-c4cc(NC5CC5)nc(-c5ccccn5)c4)c3)cc2)C1 [Example 2.62, Cyclopropyl-{5″-[4-((R)-3-dimethylamino-pyrrolidin-1-ylmethyl)-phenyl]-[2,2′;4′,3″]terpyridin-6′-yl}-amine]
28	Cc1cccc(-c2cc(-c3cncc(-c4ccc(CO)cc4)c3)cc(NC3CC3)n2)n1 [Example 2.69, [4-(6′-Cyclopropylamino-6-methyl-[2,2′;4′,3″]terpyridin-5″-yl)-phenyl]-methanol]
89	c1ccc(-c2cc(-c3cncc(-c4ccc(CN5CCNCC5)cc4)c3)cc(NC3CC3)n2)nc1 [Example 2.70, Cyclopropyl-[5″-(4-piperazin-1-ylmethyl-phenyl)-[2,2′;4′,3″]terpyridin-6′-yl]-amine]
74	Cc1cccc(-c2cc(-c3cncc(-c4ccc(CN5CCN(C(C)C)CC5)cc4)c3)cc(N)n2)n1 [Example 2.71, 5″-[4-(4-Isopropyl-piperazin-1-ylmethyl)-phenyl]-6-methyl-[2,2′;4′,3″]terpyridin-6′-ylamine]
42	CC(C)N1CCN(Cc2ccc(-c3cncc(-c4cc(N)nc(-c5ccccn5)c4)c3)cc2)CC1 [Example 2.72, 5″-[4-(4-Isopropyl-piperazin-1-ylmethyl)-phenyl]-[2,2′;4′,3″]terpyridin-6′-ylamine]
39	CC(C)N1CCN(Cc2ccc(-c3cncc(-c4cc(-c5ccccn5)nc(C(C)(C)O)c4)c3)cc2)CC1 [Example 2.80, 2-(5″-[4-(4-Isopropyl-piperazin-1-ylmethyl)-phenyl]-[2,2′;4′,3″]terpyridin-6′-yl)-propan-2-ol]
28	CC(C)(O)c1cc(-c2cncc(-c3ccc(CN4CCNCC4)cc3)c2)cc(-c2ccccn2)n1 [Example 2.81, 2-[5″-(4-piperazin-1-ylmethyl-phenyl)-[2,2′;4′,3″]terpyridin-6′-yl]-propan-2-ol]
36	CC(C)(O)c1cc(-c2cncc(-c3ccc(CN4CCN(C(C)(C)C)CC4)cc3)c2)cc(-c2ccccn2)n1 [Example 2.82, 2-{5″-[4-(4-tert-Butyl-piperazin-1-ylmethyl)-phenyl]-[2,2′;4′,3″]terpyridin-6′-yl}-propan-2-ol]
59	[2H]C([2H])([2H])N1CCN(C(=O)c2ccc(-c3cncc(-c4cc(-c5ccccn5)nc(C(C)(C)O)c4)c3)cc2)CC1 [Example 2.83, {4-[6′-(1-Hydroxy-1-methyl-ethyl)-[2,2′;4′,3″]terpyridin-5″-yl]-phenyl}-(4-methyl-d3-piperazin-1-yl)-methanone]
20	CC(C)(O)c1cc(-c2cncc(-c3cnn(C4CCOCC4)c3)c2)cc(-c2ccccn2)n1 [Example 2.84, 2-{5″-[1-(Tetrahydro-pyran-4-yl)-1H-pyrazol-4-yl]-[2,2′;4′,3″]terpyridin-6′-yl}-propan-2-ol]
